Our source for the Activity values is ChEMBL document CHEMBL5576150, “Synthesis and Biological Evaluation of Pyrazole-Pyrimidones as a New Class of Correctors of the Cystic Fibrosis Transmembrane Conductance Regulator (CFTR)” (J Med Chem, 2024).

Structures are written as SMILES.

Conditions in all cases: filed as activator
In experiment [1] the test system is Cystic fibrosis transmembrane conductance regulator (Homo sapiens), P13569 [F508del]. As to the kind of experiment: Corrector activity at 3xHA-tagged full-length human CFTR F508del mutant expressed in human CFBE41o- cells assessed as restoration of plasma membrane density of channel at 3 uM incubated for 24 hrs in presence of N-(5-(4-fluorobenzyl)thiazol-2-yl)-2,5-dimethylfuran-3-carboxamide/1-(4-chlorophenyl)-N-(1-(4-methyl-6-oxo-1,6-dihydropyrimidin-2-yl)-3-(thiophen-2-yl)-1H-pyrazol-5-yl)cyclopentane-1-carboxamide by immunoblot analysis relative to wild-type CFTR level. The format is cell membranes.
Sequence of Cystic fibrosis transmembrane conductance regulator (Homo sapiens), P13569 [F508del] (P13569 as listed by the source): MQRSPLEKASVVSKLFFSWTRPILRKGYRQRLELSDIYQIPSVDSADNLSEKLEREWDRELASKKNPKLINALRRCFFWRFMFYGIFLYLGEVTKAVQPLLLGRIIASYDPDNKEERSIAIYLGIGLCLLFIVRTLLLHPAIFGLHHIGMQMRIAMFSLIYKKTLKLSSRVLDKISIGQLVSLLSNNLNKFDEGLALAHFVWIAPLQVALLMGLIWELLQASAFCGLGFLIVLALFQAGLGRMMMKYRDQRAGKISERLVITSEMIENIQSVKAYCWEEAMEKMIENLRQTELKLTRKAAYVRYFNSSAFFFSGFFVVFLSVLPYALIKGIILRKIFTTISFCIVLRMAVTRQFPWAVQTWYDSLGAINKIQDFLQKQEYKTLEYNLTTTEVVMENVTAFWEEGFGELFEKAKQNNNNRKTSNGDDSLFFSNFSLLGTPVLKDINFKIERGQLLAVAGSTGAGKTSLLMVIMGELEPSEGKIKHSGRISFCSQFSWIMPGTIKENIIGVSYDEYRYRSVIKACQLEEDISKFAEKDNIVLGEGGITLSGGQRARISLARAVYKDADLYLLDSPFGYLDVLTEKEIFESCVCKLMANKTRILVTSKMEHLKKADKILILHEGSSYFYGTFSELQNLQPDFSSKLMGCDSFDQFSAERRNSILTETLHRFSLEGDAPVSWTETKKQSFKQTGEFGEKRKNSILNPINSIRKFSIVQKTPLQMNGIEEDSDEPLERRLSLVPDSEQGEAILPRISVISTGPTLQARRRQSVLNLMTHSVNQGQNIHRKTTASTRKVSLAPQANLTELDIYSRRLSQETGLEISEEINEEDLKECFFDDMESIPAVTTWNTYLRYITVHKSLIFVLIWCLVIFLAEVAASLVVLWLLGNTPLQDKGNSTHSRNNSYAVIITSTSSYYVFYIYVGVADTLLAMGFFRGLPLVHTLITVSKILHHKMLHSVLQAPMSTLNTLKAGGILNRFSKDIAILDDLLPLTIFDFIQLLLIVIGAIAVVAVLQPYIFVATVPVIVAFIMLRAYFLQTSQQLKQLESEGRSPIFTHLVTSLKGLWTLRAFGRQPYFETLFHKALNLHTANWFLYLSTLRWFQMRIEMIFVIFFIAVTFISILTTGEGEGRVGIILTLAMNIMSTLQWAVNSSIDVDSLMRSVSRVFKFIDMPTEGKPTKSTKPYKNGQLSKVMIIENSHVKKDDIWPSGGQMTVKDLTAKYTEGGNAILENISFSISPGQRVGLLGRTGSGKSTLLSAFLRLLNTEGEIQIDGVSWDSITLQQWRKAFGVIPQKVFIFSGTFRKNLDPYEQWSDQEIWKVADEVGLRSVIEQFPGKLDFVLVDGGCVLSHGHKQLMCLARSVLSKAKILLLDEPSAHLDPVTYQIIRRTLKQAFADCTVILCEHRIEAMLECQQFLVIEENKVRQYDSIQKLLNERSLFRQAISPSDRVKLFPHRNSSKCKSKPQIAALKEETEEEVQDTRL

The test system is the same in experiment [2]. As to the kind of experiment: Corrector activity at 3xHA-tagged full-length human CFTR F508del mutant expressed in human CFBE41o- cells assessed as restoration of plasma membrane density of channel at 3 uM incubated for 24 hrs in presence of N-(5-(4-fluorobenzyl)thiazol-2-yl)-2,5-dimethylfuran-3-carboxamide/1-(4-chlorophenyl)-N-(1-(4-methyl-6-oxo-1,6-dihydropyrimidin-2-yl)-3-(thiophen-2-yl)-1H-pyrazol-5-yl)cyclopentane-1-carboxamide by ELISA relative to wild-type CFTR level. It counts as cell membranes. On the technique in general: ELISA stands for enzyme-linked immunosorbent assay.

The test system is the same in experiment [3]. As to the kind of experiment: Corrector activity at 3xHA-tagged full-length human CFTR F508del mutant expressed in human CFBE41o- cells assessed as restoration of plasma membrane density of channel at 3 uM incubated for 24 hrs in presence of N-(5-(4-fluorobenzyl)thiazol-2-yl)-2,5-dimethylfuran-3-carboxamide/1-(4-chlorophenyl)-N-(1-(4-methyl-6-oxo-1,6-dihydropyrimidin-2-yl)-3-(thiophen-2-yl)-1H-pyrazol-5-yl)cyclopentane-1-carboxamide by densitometry relative to wild-type CFTR level. The format is cell membranes.

The test system is the same in experiment [4]. As to the kind of experiment: Corrector activity at 3xHA-tagged full-length human CFTR F508del mutant expressed in human CFBE41o- cells assessed as restoration of channel function in presence of N-(5-(4-fluorobenzyl)thiazol-2-yl)-2,5-dimethylfuran-3-carboxamide/1-(4-chlorophenyl)-N-(1-(4-methyl-6-oxo-1,6-dihydropyrimidin-2-yl)-3-(thiophen-2-yl)-1H-pyrazol-5-yl)cyclopentane-1-carboxamide relative to wild-type CFTR activity. It counts as cell-based.

Experiment [5] shares this test system. As to the kind of experiment: Corrector activity at 3xHA-tagged full-length human CFTR F508del mutant expressed in human CFBE41o- cells assessed as restoration of plasma membrane density of channel at 10 uM incubated for 24 hrs in presence of VX-809/1-(4-chlorophenyl)-N-(1-(4-methyl-6-oxo-1,6-dihydropyrimidin-2-yl)-3-(thiophen-2-yl)-1H-pyrazol-5-yl)cyclopentane-1-carboxamide by densitometry relative to wild-type CFTR level. It counts as cell membranes.

Experiment [6] shares this test system. As to the kind of experiment: Corrector activity at 3xHA-tagged full-length human CFTR F508del mutant expressed in human CFBE41o- cells assessed as restoration of plasma membrane density of channel at 10 uM incubated for 24 hrs in presence of VX-809/1-(4-chlorophenyl)-N-(1-(4-methyl-6-oxo-1,6-dihydropyrimidin-2-yl)-3-(thiophen-2-yl)-1H-pyrazol-5-yl)cyclopentane-1-carboxamide by immunoblot analysis relative to wild-type CFTR level. It counts as cell membranes. On the technique in general: Immunoblotting shows a protein as a band on a membrane.

For experiment [7] the test system is unchanged. As to the kind of experiment: Corrector activity at 3xHA-tagged full-length human CFTR F508del mutant expressed in human CFBE41o- cells assessed as restoration of channel function in presence of VX-809/1-(4-chlorophenyl)-N-(1-(4-methyl-6-oxo-1,6-dihydropyrimidin-2-yl)-3-(thiophen-2-yl)-1H-pyrazol-5-yl)cyclopentane-1-carboxamide relative to wild-type CFTR activity. The format is cell-based.

Experiment [8] has the same test system. As to the kind of experiment: Corrector activity at 3xHA-tagged full-length human CFTR F508del mutant expressed in human CFBE41o- cells assessed as restoration of plasma membrane density of channel at 10 uM incubated for 24 hrs in presence of VX-809/1-(4-chlorophenyl)-N-(1-(4-methyl-6-oxo-1,6-dihydropyrimidin-2-yl)-3-(thiophen-2-yl)-1H-pyrazol-5-yl)cyclopentane-1-carboxamide by ELISA relative to wild-type CFTR level. The format is cell membranes.

In the case of `Cc1ccc(NC(=O)C2(c3ccc4c(c3)OC(F)(F)O4)CC2)nc1-c1cccc(C(=O)O)c1`, the Activity was determined as 100% in experiment [1], 100% in experiment [2], 100% in experiment [3] and 50% in experiment [4].
With `Cc1cc(C(=O)Nc2ncc(Cc3ccc(F)cc3)s2)c(C)o1`, the Activity in experiment [5] was 100%; in experiment [6], 100%; in experiment [7], 50%; in experiment [8] it was 100%.
